Source: patent publication US10202340B2, “Glucosylceramide synthase inhibitors and therapeutic methods using the same” (THE REGENTS OF THE UNIVERSITY OF MICHIGAN, priority 2015, dated 2019)
Where a name gives a salt, the structure may show the parent alone. Read-outs that look alike come from different tables or passages of the source. Values belong to the molecule of their own block, whether it stands above or below them.

What was measured:
[1] = Mouse liver microsome stability; format: in vitro ADME; details: mouse liver microsomes; read-out: Mouse liver microsome t1/2
Protocol: Selected compounds were incubated with mouse liver microsomes to assess their stability to oxidative metabolism by cytochrome P450 enzymes (Table 1).

[2] = target: glucosylceramide synthase (GCS) (Canis lupus familiaris, UniProt A0A8I3MXG6); test: GCS activity, broken cell assay (inhibition of GlcCer synthesis in broken wild-type MDCK cell preparations); format: biochemical, canine; details: mean of n > 2 experiments
Sequence of glucosylceramide synthase (GCS) (A0A8I3MXG6 1-394): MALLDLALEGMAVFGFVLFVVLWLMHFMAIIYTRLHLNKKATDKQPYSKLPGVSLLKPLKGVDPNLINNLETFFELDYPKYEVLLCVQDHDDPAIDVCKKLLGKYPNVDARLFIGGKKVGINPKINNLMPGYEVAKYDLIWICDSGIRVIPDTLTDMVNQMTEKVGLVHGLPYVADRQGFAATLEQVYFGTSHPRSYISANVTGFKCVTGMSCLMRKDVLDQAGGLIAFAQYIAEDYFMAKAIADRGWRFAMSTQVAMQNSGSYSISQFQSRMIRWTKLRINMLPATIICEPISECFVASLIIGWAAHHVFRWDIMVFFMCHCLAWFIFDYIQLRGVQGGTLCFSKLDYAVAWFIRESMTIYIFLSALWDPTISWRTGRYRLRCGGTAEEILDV
Protocol: Enzyme activity was measured as described previously (9). Madin-Darby canine kidney (MDCK) cell homogenates (120 μg of protein) were incubated with uridine diphosphate-[^3H]glucose (100,000 cpm) and liposomes consisting of 85 μg of octanoylsphingosine, 570 μg of dioleoylphosphatidylcholine, and 100 μg of sodium sulfatide in a 200 μL reaction mixture and kept for 1 h at 37° C.

GCS in WT-MDCKII cells = GCS in WT-MDCKII cells (Canis lupus familiaris, UniProt A0A8I3MXG6); test: Inhibition of GlcCer production in whole wild-type MDCKII cells; format: cell-based, canine; details: 24 hours, read-out: WT-MDCK IC50
Sequence of GCS in WT-MDCKII cells (A0A8I3MXG6 1-394): as above
Protocol: (§1) Parental (WT-)MDCKII cells and MDCKII cells retrovirally transduced with human MDR-1 cDNA were obtained from the Netherlands Cancer Institute. Both cell lines were routinely maintained in medium consisting of Opti-MEM/F12 (1:1), 5% FBS, 100 U/mL of penicillin, 100 μg/mL streptomycin and […] L-glutamine. MDCKII cells were newly thawed from frozen ampules every two months.
(§2) Stock solutions of water-insoluble glycosphingolipid inhibitors (100 mM) were prepared by dissolving each inhibitor into 100% ethanol as previously described (3). The inhibitor-ethanol solutions then were diluted 50× into 2 mM delipidated bovine serum albumin-phosphate buffered saline solution to make water-soluble glycosphingolipid inhibitor-bovine serum albumin complexes. The inhibitor-bovine serum album complexes were sterile-filtered and stored at −20° C. Prior to use, portions of the inhibitor-bovine serum albumin complexes were further diluted with Opti-F12 to make treatment solutions. Equal amounts of bovine serum albumin and ethanol were added into the control cultures. WT and MDR1-MDCKII cells (5×10^5) were seeded into 10-cm culture dishes containing 10 ml of Opti-F12 with 5% FBS.
(§3) Following inhibitor treatment, whole cellular lipids of wild type and MDR1-MDCKII cells were extracted as previously described in detail (10). Briefly, cells were washed with ice-cold phosphate buffered saline, fixed by methanol, and collected with rubber scraper. Chloroform was then added to yield a theoretical ratio of chloroform:methanol:water at 1:2:0.8 (v/v/v) to form a mono-phase. Cell debris and proteins were removed by centrifugation at 2200×g for 30 min. The supernatants were portioned by adding chloroform and 0.9% NaCl. The lower organic phases containing neutral glycosphingolipids lipids were washed with methanol and 0.9% NaCl, and subjected to base- and acid-hydrolysis (10). A portion of purified glycosphingolipids normalized to 100 nmol of total phospholipids was analyzed by high performance thin layer chromatography. The thin layer chromatography separations were processed twice. The plate pretreated with 1% sodium borate was first developed in a solvent system consisting of chloroform/methanol (98/2, v/v). After air drying, the plate was then developed in a solvent system containing chloroform/methanol/water (70/30/4, v/v/v). The levels of glucosylceramide were detected by charring with 8% cupric sulfate in 8% phosphoric acid, and quantified by densitometric scanning using ImageJ, NIH Image.

GCS in MDR1-MDCKII cells = GCS in MDR1-MDCKII cells (Canis lupus familiaris, UniProt A0A8I3MXG6); details: read-out: MDR1-MDCKII IC50; MDCKII cells stably expressing human MDR1, 24 hours
Sequence of GCS in MDR1-MDCKII cells (A0A8I3MXG6 1-394): as above
Protocol: as §1, §2, §3

[3] = tested on: brain glucosylceramide (GlcCer); test: Brain glucosylceramide (GlcCer) content in WT mice; format: in vivo, mouse; details: for reduction in brain GlcCer levels / reduction of brain GlcCer levels: WT mice
Protocol: Lipid extractions of liver, kidney, and brain were performed as previously described (7). Briefly, frozen liver (about 0.5 g), two kidneys (about 0.3 g) and whole brain (about 0.4 g) were individually homogenized in sucrose buffer (250 mM sucrose, pH 7.4, 10 mM HEPES and 1 mM EDTA), at 0.2 g tissue/1 mL of sucrose buffer, with a Tri-R homogenizer. Each 0.8 mL of homogenate was mixed with 2 mL of methanol and 1 mL of chloroform, bath sonicated for 1 min and incubated at room temperature for 1 h. Tissue debris were removed by centrifugation at 2,400× gravity for 30 min. The pellets were re-extracted by mixing with 1 mL of methanol, 0.5 mL of chloroform and 0.4 mL of 0.9% NaCl (chloroform/methanol/0.9% NaCl, 1:2:0.8), incubated at room temperature for 1 h and centrifuged at 2,400× gravity for another 30 min. Two extracts were combined and mixed with 4.5 mL of chloroform and 1.2 mL of 0.9% NaCl (chloroform/methanol/0.9% NaCl, 2:1:0.8). After centrifugation at 800× gravity for 5 min, lower layer was washed with 3 mL of methanol and 2.4 mL of 0.9% NaCl. Second washing was carried with 3 mL of methanol, 2 mL of water and 0.4 mL of 0.9% NaCl followed by a 5 min centrifugation at 800× gravity. The resultant lower phase was collected and dried under a stream of N2 gas.
The analysis of neutral glycosphingolipids from mouse liver, kidney, and brain was processed after alkaline methanolysis. […] lipids were incubated with 2 mL of chloroform and 1 ml of 0.21N NaOH in methanol for 2 h (kidney) or 7.5 h (liver and brain) at RT. The lipid extract was normalized to 0.5 μmol of total phospholipid phosphate (liver and kidney) or 2 μmol of total phospholipid phosphate (brain) for high performance thin layer chromatography analysis. After alkaline methanolysis, the brain lipids were passed through a silica gel column (7). Borate-impregnated thin layer chromatography plates were developed in a two solvent system. Plates were first developed in chloroform/methanol (98:2, v/v). The plates loaded with kidney and liver lipids were then developed in chloroform/methanol/water (64:24:4, v/v/v), and brain lipids were further separated in chloroform/methanol/water (60:30:6, v/v/v). GlcCer levels were quantified by comparison to known standards.
In another test, a dose ranging study for brain glucosylceramide (GlcCer) content was performed using the compound of Example 7. FIG. 1 contains bar graphs showing the GluCer levels in treated and untreated WT mouse brain at low doses for 3 days (FIG. 1A) and high doses for 3 days (FIG. 1B). […] FIG. 1C compares the GlcCer levels in treated and untreated WT mouse brain for 7 days comparing oral gavage vs. IP injection. […] FIG. 2 contains comparative brain GlcCer level data obtained with the Control Compound, dosed at 10 mg/kg IP (FIG. 2A) or 60 mg/kg IP (FIG. 2B) in WT mice for 3 days.

[4] = Brain and plasma drug levels after single oral dose in CD-1 mice; format: in vivo, mouse
[5] = mouse, brain, single 20 mg/kg PO, female CD-1 mice, read-out: Drug level in brain
[6] = mouse, plasma, single 20 mg/kg PO, female CD-1 mice, read-out: Drug level in plasma
[7] = mouse, plasma, single 20 mg/kg PO, female CD-1 mice, 7 hrs, read-out: Drug level in plasma

half-life [1]: 4 min
SMILES: COc1cccc([C@@H](O)[C@@H](CN2CCCC2)NC(=O)CC2Cc3ccccc3C2)c1 [Example 3, 2-(2,3-dihydro-1H-inden-2-yl)-N-((1R,2R)-1-hydroxy-1-(3-methoxyphenyl)-3-(pyrrolidin-1-yl)propan-2-yl)acetamide]

half-life [1]: > 60 min
SMILES: O=C(CC1Cc2ccccc2C1)N[C@H](CN1CCC1)[C@H](O)c1ccc(OC(F)(F)F)cc1 [Example 17, N-((1R,2R)-3-(azetidin-1-yl)-1-hydroxy-1-(4-(trifluoromethoxy)phenyl)propan-2-yl)-2-(2,3-dihydro-1H-inden-2-yl)acetamide]

half-life [1]: 2.7 min
SMILES: COc1ccc([C@@H](O)[C@@H](CN2CCCC2)NC(=O)CC2Cc3ccccc3C2)cc1F [Example 1, 2-(2,3-dihydro-1H-inden-2-yl)-N-((1R,2R)-1-(3-fluoro-4-methoxyphenyl)-1-hydroxy-3-(pyrrolidin-1-yl)propan-2-yl)acetamide]

SMILES: O=C(CC1Cc2ccccc2C1)N[C@H](CN1CC[C@@H](F)C1)[C@H](O)c1ccc(OC(F)(F)F)cc1 [Example 16, 2-(2,3-dihydro-1H-inden-2-yl)-N-((1R,2R)-3-((R)-3-fluoropyrrolidin-1-yl)-1-hydroxy-1-(4-(trifluoromethoxy)phenyl)propan-2-yl)acetamide]
IC50 [2]: > 300 nM
IC50 (GCS in WT-MDCKII cells): 23 nM
IC50 (GCS in MDR1-MDCKII cells): 47 nM

half-life [1]: 11 min
SMILES: O=C(CC1Cc2ccccc2C1)N[C@H](CN1CCCC1)[C@H](O)c1ccc(OCC(F)(F)F)cc1 [Example 12, 2-(2,3-dihydro-1H-inden-2-yl)-N-((1R,2R)-1-hydroxy-3-(pyrrolidin-1-yl)-1-(4-(2,2,2-trifluoroethoxy)phenyl)propan-2-yl)acetamide]

half-life [1]: 37 min
concentration at 1 h [4, 5]: 193 ng/g
concentration at 7 h ([4]; mouse, brain, single 20 mg/kg PO, female CD-1 mice, 7 hrs, read-out: Drug level in brain): 68 ng/g
concentration at 1 h [4, 6]: 463 ng/g
concentration at 7 h [4, 7]: 52 ng/g
SMILES: O=C(CC1Cc2ccccc2C1)N[C@H](CN1CCCC1)[C@H](O)c1ccc(OC(F)(F)F)cc1 [Example 7, 2-(2,3-dihydro-1H-inden-2-yl)-N-((1R,2R)-1-hydroxy-3-(pyrrolidin-1-yl)-1-(4-(trifluoromethoxy)phenyl)propan-2-yl)acetamide]
reduction in brain GlcCer levels ([3]; 1 mg/kg IP, 3 days): Near maximal reduction
reduction of brain GlcCer levels ([3]; 1 mg/kg IP, 3 days): 35%
reduction in brain GlcCer levels ([3]; oral dosing at 10 mg/kg, 7 days): significant reductions

IC50 (GCS in WT-MDCKII cells): 50 nM
SMILES: O=C(CC1Cc2ccccc2C1)N[C@H](CN1CCCC1)[C@H](O)c1cccc(OC(F)(F)F)c1 [Example 14, 2-(2,3-dihydro-1H-inden-2-yl)-N-((1R,2R)-1-hydroxy-3-(pyrrolidin-1-yl)-1-(3-(trifluoromethoxy)phenyl)propan-2-yl)acetamide]

half-life [1]: 5.5 min
SMILES: COc1ccc([C@@H](O)[C@@H](CN2CCCC2)NC(=O)CC2Cc3ccccc3C2)cc1 [Example 2, 2-(2,3-dihydro-1H-inden-2-yl)-N-((1R,2R)-1-hydroxy-1-(4-methoxyphenyl)-3-(pyrrolidin-1-yl)propan-2-yl)acetamide]

SMILES: O=C(CC1Cc2ccccc2C1)N[C@H](CN1CCCC1)[C@H](O)c1ccc(OCC2CC2)cc1 [Example 11, N-((1R,2R)-1-(4-(cyclopropylmethoxy)phenyl)-1-hydroxy-3-(pyrrolidin-1-yl)propan-2-yl)-2-(2,3-dihydro-1H-inden-2-yl)acetamide]
IC50 [2]: 46 nM
IC50 (GCS in WT-MDCKII cells): 1 nM
IC50 (GCS in MDR1-MDCKII cells): 0.84 nM

SMILES: O=C(CC1Cc2ccccc2C1)N[C@H](CN1CCCC1)[C@H](O)c1ccc2c(c1)OCCO2 [control]
IC50 (GCS in WT-MDCKII cells): 15 nM
IC50 (GCS in MDR1-MDCKII cells): 24 nM
half-life [1]: 1.5 min
reduction of brain GlcCer levels ([3]; 60 mg/kg IP, 3 days): 17%
Kp at 1 h ([4]; female, mouse, brain/plasma, 20 mg/kg, single oral dose, CD-1 mice, at one hour, read-out: brain/plasma ratio): 0.25
concentration at 1 h [4, 5]: 5 ng/g
concentration at 1 h [4, 6]: 20 ng/g
concentration at 7 h [4, 7]: 9 ng/g
Drug level in brain ([4]; single 20 mg/kg PO, female CD-1 mice, 7 hrs): BLQ*

SMILES: CCCCCCCC(=O)N[C@H](CN1CCCC1)[C@H](O)c1ccc2c(c1)OCCO2 [eliglustat tartrate, N-((1R,2R)-1-(2,3-dihydrobenzo-[b][1,4]dioxin-6-yl)-1-hydroxy-3-(pyrrolidin-1-yl)propan-2-yl)octanamide, reference compound]
decrease in brain glucosylceramide content ([3]; mice, intraperitoneal administration for 3 days): not seen

SMILES: COc1ccccc1[C@@H](O)[C@@H](CN1CCCC1)NC(=O)CC1Cc2ccccc2C1 [Example 4, 2-(2,3-dihydro-1H-inden-2-yl)-N-((1R,2R)-1-hydroxy-1-(2-methoxyphenyl)-3-(pyrrolidin-1-yl)propan-2-yl)acetamide]
IC50 [2]: 44 nM
IC50 (GCS in WT-MDCKII cells): 5 nM
IC50 (GCS in MDR1-MDCKII cells): 56 nM
